Laboratory results published in patent publication US20250136568A1, “FUSED HETEROCYCLIC COMPOUNDS AS PI3KALPHA INHIBITORS” (Nanjing Zenshine Pharmaceuticals Co., Ltd., priority 2021, published 2025).
Where two headings read alike, the source gives them in different places.

How the values were obtained:
[1] = tested on: PI3Kα wide type cell line SK-BR-3; test: Cell Proliferation IC50 Assay (CellTiter-Glo), SK-BR-3; type: cell-based; conditions: Homo sapiens; SK-BR-3 (PI3Kα wild type), 72 hours, CellTiter-Glo; read-out: IC50 (μM) SK-BR-3
Outline: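 Cells were seeded and left overnight, then exposed to serially diluted compound (200-fold final dilution) for 72 h at 37 °C, 5% CO2. Viability was read by CellTiter-Glo luminescence. Percent inhibition and IC50 were calculated from the signal.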

[2] = tested on: PI3Kα H1047R mutation cell line MDA-MB-453; test: Cell Proliferation IC50 Assay (CellTiter-Glo), MDA-MB-453; type: cell-based; conditions: Homo sapiens, read-out: IC50 (μM) MDA-MB-453
Source text: PI3Kα H1047R mutation cell line T-47D and MDA-MB-453, E545K mutation cell line MDA-MB-361 and PI3Kα wide type cell line SK-BR-3 were purchased from Cobioer Biotech (cat. no CBP60397, CBP60386, CBP60383 and CBP60413 respectively). The CellTiter-Glo Direct Cell Proliferation Assay Kit was purchased from Prornega (cat. No. G7573)
For cell proliferation assay in each cell line: • a. Prepare complete medium (R PMI 1640, DMEM or McCoys): Add FBS and appropriate additives according to the information sheet provided by the vendor. Mix gently. • b. Prepare single cell suspension and count the cell numbers and adjust cells to appropriate density. • c. Add 80 μL of cell suspension to 96-well opaque-walled clear bottom plates according to the planned plate layout and place the plates in the CO2 incubator overnight. • d. Prepare intermediate plate: 10 μl of diluted test compounds or staurosporine solution (200×) is added to a 96 deep well plate. Then 390 μl of culture medium without FBS is added to the respective wells. • e. Transfer 20 μL of the solutions from the above intermediate plate to the wells of the plate prepared containing 80 μL of the culture medium and cells. The total dilution is 200 folds. • f. The cells were then incubated at 5% CO2, 37° C. for 72 hours. • g. Equilibrate the plate and its contents to room temperature for approximately 30 minutes. • h. Add 100 μL of CellTiter-Glo reagent to the assay plate • i. Mix contents for 10 minutes on an orbital shaker to induce cell lysis. • j. Allow the plate to incubate at room temperature for 10 minutes to stabilize luminescent signal, • k. Paste the clear bottom with white back seal and record luminescence with Varioskan LUX plate reader.
Inhibition % and IC50 value were calculated by the formula described below: […]

[3] = MDA-MB-453 (H1047R), 72 hours, CellTiter-Glo

| IC50 [1] | IC50 [2, 3] | Compound | IC50 ([2]; MDA-MB-453, 72 h) |
| --- | --- | --- | --- |
| > 10 µM | 0.76 µM | Cc1cc(C(C)Nc2ccccc2C(=O)O)c2oc(-c3ccc(C(=O)N(C)C)c(C)c3)cc(=O)c2c1 (stereo not drawn) [Example 48, 2-((1-(2-(4-(dimethylcarbamoyl)-3-methylphenyl)-6-methyl-4-oxo-4H-chromen-8-yl)ethyl)amino)benzoic acid] | – |
| > 10 µM | 0.24 µM | Cc1cc(C(C)Nc2ccccc2C(=O)O)c2oc(-c3ccc4c(c3)CCN(C)C4=O)cc(=O)c2c1 (stereo not drawn) [Example 47, 2-((1-(6-methyl-2-(2-methyl-1-oxo-1,2,3,4-tetrahydroisoquinolin-6-yl)-4-oxo-4H-chromen-8-yl)ethyl)amino)benzoic acid] | – |
| > 10 µM | 0.78 µM | Cc1cc(C(C)Nc2ccccc2C(=O)O)c2oc(-c3ccc4cnn(C)c4c3)cc(=O)c2c1 (stereo not drawn) [Example 52, 2-((1-(6-methyl-2-(1-methyl-1H-indazol-6-yl)-4-oxo-4H-chromen-8-yl)ethyl)amino)benzoic acid] | – |
| > 10 µM | 0.2 µM | Cc1cc(C(C)Nc2ccccc2C(=O)O)c2oc(-c3ccc(N4CCOCC4C)cc3)cc(=O)c2c1 (stereo not drawn) [Example 66, 2-((1-(6-methyl-2-(4-(3-methylmorpholino)phenyl)-4-oxo-4H-chromen-8-yl)ethyl)amino)benzoic acid] | – |
| > 10 µM | 6.39 µM | Cc1cc(C(C)Nc2ccccc2C(=O)O)c2oc(-c3ccc(=O)n(C)c3)cc(=O)c2c1 (stereo not drawn) [Example 50, 2-((1-(6-methyl-2-(1-methyl-6-oxo-1,6-dihydropyridin-3-yl)-4-oxo-4H-chromen-8-yl)ethyl)amino)benzoic acid] | – |
| > 10 µM | 2.46 µM | Cc1cc(C(C)Nc2ccccc2C(=O)O)c2oc(C3CCN(c4ccncc4)CC3)c(C)c(=O)c2c1 (stereo not drawn) [Example 126, 2-((1-(3,6-dimethyl-4-oxo-2-(1-(pyridin-4-yl)piperidin-4-yl)-4H-chromen-8-yl)ethyl)amino)benzoic acid] | – |
| > 10 µM | 1.18 µM | Cc1cc(C(C)Nc2ccccc2C(=O)O)c2oc(-c3ccc4c(=O)n(C)ccc4c3)cc(=O)c2c1 (stereo not drawn) [Example 120, 2-((1-(6-methyl-2-(2-methyl-1-oxo-1,2-dihydroisoquinolin-6-yl)-4-oxo-4H-chromen-8-yl)ethyl)amino)benzoic acid] | – |
| > 10 µM | 0.25 µM | CCN1Cc2cc(-c3cc(=O)c4cc(C)cc(C(C)Nc5ccccc5C(=O)O)c4o3)ccc2C1=O (stereo not drawn) [Example 7, 2-((1-(2-(2-ethyl-1-oxoisoindolin-5-yl)-6-methyl-4-oxo-4H-chromen-8-yl)ethyl)amino)benzoic acid] | – |
| > 10 µM | 1.9 µM | Cc1cc(C(C)Nc2ccccc2C(=O)O)c2oc(-c3ccc(N4CCOCC4=O)cc3)cc(=O)c2c1 (stereo not drawn) [Example 64, 2-((1-(6-methyl-4-oxo-2-(4-(3-oxomorpholino)phenyl)-4H-chromen-8-yl)ethyl)amino)benzoic acid] | – |
| > 10 µM | 0.39 µM | Cc1cc(C(C)Nc2ccccc2C(=O)O)c2oc(-c3ccc4c(c3)CN(C(C)C)C4=O)cc(=O)c2c1 (stereo not drawn) [Example 44, -((1-(2-(2-isopropyl-1-oxoisoindolin-5-yl)-6-methyl-4-oxo-4H-chromen-8-yl)ethyl)amino)benzoic acid] | – |

Continued, compound first:

| Compound | IC50 [1] | IC50 [2, 3] | IC50 ([2]; MDA-MB-453, 72 h) |
| --- | --- | --- | --- |
| Cc1cc(C(C)Nc2ccccc2C(=O)O)c2oc(-c3ccc4nn(CCO)cc4c3)cc(=O)c2c1 (stereo not drawn) [Example 57, 2-((1-(2-(2-(2-hydroxyethyl)-2H-indazol-5-yl)-6-methyl-4-oxo-4H-chromen-8-yl)ethyl)amino)benzoic acid] | > 10 µM | 0.62 µM | – |
| Cc1cc(C(C)Nc2ccccc2C(=O)O)c2oc(C3CCN(c4ccccn4)CC3)c(C)c(=O)c2c1 (stereo not drawn) [Example 124, 2-((1-(3,6-dimethyl-4-oxo-2-(1-(pyridin-2-yl)piperidin-4-yl)-4H-chromen-8-yl)ethyl)amino)benzoic acid] | > 10 µM | – | 0.5 µM |
| Cc1cc(C(C)Nc2ccccc2C(=O)O)c2oc(-c3ccc(N4CCN(C)CC4)cc3)c(C)c(=O)c2c1 (stereo not drawn) [Example 90, 2-((1-(3,6-dimethyl-2-(4-(4-methylpiperazin-1-yl)phenyl)-4-oxo-4H-chromen-8-yl)ethyl)amino)benzoic acid] | > 10 µM | 0.09 µM | – |
| Cc1cc(C(C)Nc2ccccc2C(=O)O)c2oc(-c3ccc4nn(C5COC5)cc4c3)cc(=O)c2c1 (stereo not drawn) [Example 56, 2-((1-(6-methyl-2-(2-(oxetan-3-yl)-2H-indazol-5-yl)-4-oxo-4H-chromen-8-yl)ethyl)amino)benzoic acid] | > 10 µM | 0.55 µM | – |
| Cc1cc(C(C)Nc2ccccc2C(=O)O)c2oc(-c3cc4cn(C)nc4cc3C)cc(=O)c2c1 (stereo not drawn) [Example 61, 2-((1-(2-(2,6-dimethyl-21-indazol-5-yl)-6-methyl-4-oxo-4H-chromen-8-yl)ethyl)amino)benzoic acid] | > 10 µM | 8.48 µM | – |
| Cc1cc([C@@H](C)Nc2ccccc2C(=O)O)c2oc(-c3ccc(N4CCN(C5COC5)CC4)cc3)c(C)c(=O)c2c1 [Example 118, (R)-2-((1-(3,6-dimethyl-2-(4-(4-(oxetan-3-yl)piperazin-1-yl)phenyl)-4-oxo-4H-chromen-8-yl)ethyl)amino)benzoic acid] | 7.52 µM | – | 0.14 µM |
| Cc1cc(C(C)Nc2ccccc2C(=O)O)c2oc(-c3ccc4c(c3)CN(Cc3ccccc3)C4=O)cc(=O)c2c1 (stereo not drawn) [Example 46, 2-((1-(2-(2-benzyl-1-oxoisoindolin-5-yl)-6-methyl-4-oxo-4H-chromen-8-yl)ethyl)amino)benzoic acid] | > 10 µM | 0.42 µM | – |
| CC(=O)N1CCN(c2ccc(-c3cc(=O)c4cc(C)cc(C(C)Nc5ccccc5C(=O)O)c4o3)cc2)CC1 (stereo not drawn) [Example 65, 2-((1-(2-(4-(4-acetylpiperazin-1-yl)phenyl)-6-methyl-4-oxo-4H-chromen-8-yl)ethyl)amino)benzoic acid] | > 10 µM | 0.21 µM | – |
| Cc1cc(C(C)Nc2ccccc2C(=O)O)c2oc(-c3ccc(N4CCS(=O)(=O)CC4)cc3)c(C)c(=O)c2c1 (stereo not drawn) [Example 132, 2-((1-(2-(4-(1,1-dioxidothiomorpholino)phenyl)-3,6-dimethyl-4-oxo-4H-chromen-8-yl)ethyl)amino)benzoic acid] | > 10 µM | 0.27 µM | – |
| Cc1cc(C(C)Nc2ccccc2C(=O)O)c2oc(-c3ccc4c(=O)n(C)ncc4c3)cc(=O)c2c1 (stereo not drawn) [Example 122, 2-((1-(6-methyl-2-(2-methyl-1-oxo-1,2-dihydrophthalazin-6-yl)-4-oxo-4H-chromen-8-yl)ethyl)amino)benzoic acid] | > 10 µM | 0.56 µM | – |
| Cc1cc(C(C)Nc2ccccc2C(=O)O)c2oc(-c3ccc4c(c3)N(C)C(=O)C4)cc(=O)c2c1 (stereo not drawn) [Example 21, 2-((1-(6-methyl-2-(1-methyl-2-oxoindolin-6-yl)-4-oxo-4H-chromen-8-yl)ethyl)amino)benzoic acid] | > 10 µM | > 10 µM | – |
| Cc1cc(C(C)Nc2ccccc2C(=O)O)c2oc(-c3ccc4c(c3)CN(C3COC3)C4=O)cc(=O)c2c1 (stereo not drawn) [Example 45, 2-((1-(6-methyl-2-(2-(oxetan-3-yl)-1-oxoisoindolin-5-yl)-4-oxo-411-chromen-8-yl)ethyl)amino)benzoic acid] | > 10 µM | 0.97 µM | – |
| Cc1cc(C(C)Nc2ccccc2C(=O)O)c2oc(-c3cccc4c3CN(C)C4=O)cc(=O)c2c1 (stereo not drawn) [Example 24, 2-((1-(6-methyl-2-(2-methyl-1-oxoisoindolin-4-yl)-4-oxo-4H-chromen-8-yl)ethyl)amino)benzoic acid] | > 10 µM | 4.07 µM | – |
| Cc1cc(C(C)Nc2ccccc2C(=O)O)c2oc(-c3ccc4nn(C)cc4n3)cc(=O)c2c1 (stereo not drawn) [Example 84, 2-((1-(6-methyl-2-(2-methyl-2H-pyrazolo[4,3-b]pyridin-5-yl)-4-oxo-4H-chromen-8-yl)ethyl)amino)benzoic acid] | > 10 µM | 0.26 µM | – |
| Cc1cc(C(C)Nc2ccccc2C(=O)O)c2oc(-c3ccc4nn(C)cc4c3C)cc(=O)c2c1 (stereo not drawn) [Example 62, 2-((1-(2-(2,4-dimethyl-2H-indazol-5-yl)-6-methyl-4-oxo-4H-chromen-8-yl)ethyl)amino)benzoic acid] | > 10 µM | 0.47 µM | – |
| Cc1cc(C(C)Nc2ccccc2C(=O)O)c2oc(-c3ccc(S(C)(=O)=O)cc3)c(C)c(=O)c2c1 (stereo not drawn) [Example 127, 2-((1-(3,6-dimethyl-2-(4-(methylsulfonyl)phenyl)-4-oxo-4H-chromen-8-yl)ethyl)amino)benzoic acid] | > 10 µM | > 10 µM | – |
| Cc1cc([C@H](C)Nc2ccccc2C(=O)O)c2oc(-c3ccc(N4CCOCC4)cc3)c(C)c(=O)c2c1 (single isomer, unassigned) [Example 53B] | > 10 µM | 2.34 µM | – |
